Experimental data reported in US10188647B2, “Combination therapy using P53 activator and c-Met inhibitor” (Samsung Electronics Co., Ltd., priority 2013, dated 2019).

Legend:
Caki-1 cell line [1] = system: Caki-1 cell line; parameters: expression of p21: dose or concentration left out as unconfirmed; settings: Caki-1 cells, 24 hours, western blot
Protocol: (§1) The activation of cell signal transduction system after the co-administration of L3-1Y antibody that is a c-Met antibody prepared in the above reference example and Nutlin-3a that is a p53 activator, was tested in MKN45 stomach cancer cell line and Caki-1 cell line.
(§2) Particularly, RPMI1640 (for MKN45 cells) containing 10% FBS, and DMEM (for Caki-1 cells) media (GIBCO) were added to a 96-well plate, to which MKN45 cell line (ATCC) and Caki-1 cell line (both of them were all obtained from ATCC) were each seeded in an amount of […], and then incubated overnight at 37° C. On the next day, the sole treatment of L3-1Y antibody at a concentration of 0.1 ug/ml (MKN45 cells) and 5 ug/ml (Caki-1 cells), […], and the combined treatment of L3-1Y antibody at 0.1 ug/ml (MKN45 cells) and 5 ug/ml ([…], respectively) were administered. After 24 hours post-administration, c-Met inhibition and p53 activation were analyzed by western blot.

[2] = system: MKN45 stomach cancer cell line; test: MKN45 cell proliferation after sole or combined treatment (CTG); format: cell-based; settings: 72 hours
Protocol: The effects obtained by the co-administration of L3-1Y antibody that is a c-Met antibody prepared in the above reference example and Nutlin-3a that is a p53 activator, were tested in MKN45 stomach cancer cell line.
In particular, RPMI1640 media (GIBCO) containing 10% FBS were added to a 96-well plate, to which MKN45 stomach cancer cell line (ATCC) was seeded at 10,000 cells/well, and then incubated overnight at 37° C. On the next day, the sole treatment of 0.1 ug/ml of L3-1Y antibody, the sole treatment of 0.5 uM of Nutlin-3a (#N6287, sigma) which is a p53 activator, and the combined treatment of 0.1 ug/ml of L3-1Y antibody and 0.5 uM (micromole) of Nutlin-3a were administered to the incubated cells. After 72 hours post-administration, a CTG solution was added to the wells at 100 ul per well and after 30 min., and cell numbers were counted to measure a cell proliferation level.

[3] = system: MKN45 stomach cancer cell line; test: Western blot of p53 and p21 expression/accumulation, MKN45 cells; format: cell-based; settings: 24 hours
Protocol: as §1, §2

c-Met = c-Met (Homo sapiens, UniProt P08581); test: Specificity of expressed scFv to c-Met; format: binding; settings: expressed scFv product
Caki-1 cell line [4] = test: Caki-1 cell proliferation (BrdU assay), agonism of L3-1Y antibody; format: cell-based; settings: sole treatment 10 ug/ml L3-1Y, serum-free, 24 hours
Protocol: The effects obtained by the co-administration of L3-1Y antibody that is a c-Met antibody prepared in the above reference example and Nutlin-3a that is a p53 activator, were tested in Caki-1 cell line.
Particularly, DMEM media (GIBCO) containing 10% FBS were added to a 96-well plate, to which Caki-1 cell line (ATCC) was seeded at 5,000 cells/well, and then incubated overnight at 37° C. On the next day, the media was replaced by serum-free media, which were then incubated for 24 hours. The sole treatment of 10 ug/ml of L3-1Y antibody, and the combined treatment of 0.1 ug/ml of L3-1Y antibody and 5 uM of Nutlin-3a were administered to the incubated cells. After 24 hours post-administration, a BrdU assay was conducted to measure the cell proliferation level.

[5] = sole treatment 0.5 mM Nutlin-3a
[6] = sole treatment 0.5 uM Nutlin-3a

Sequence of c-Met (P08581 25-1390): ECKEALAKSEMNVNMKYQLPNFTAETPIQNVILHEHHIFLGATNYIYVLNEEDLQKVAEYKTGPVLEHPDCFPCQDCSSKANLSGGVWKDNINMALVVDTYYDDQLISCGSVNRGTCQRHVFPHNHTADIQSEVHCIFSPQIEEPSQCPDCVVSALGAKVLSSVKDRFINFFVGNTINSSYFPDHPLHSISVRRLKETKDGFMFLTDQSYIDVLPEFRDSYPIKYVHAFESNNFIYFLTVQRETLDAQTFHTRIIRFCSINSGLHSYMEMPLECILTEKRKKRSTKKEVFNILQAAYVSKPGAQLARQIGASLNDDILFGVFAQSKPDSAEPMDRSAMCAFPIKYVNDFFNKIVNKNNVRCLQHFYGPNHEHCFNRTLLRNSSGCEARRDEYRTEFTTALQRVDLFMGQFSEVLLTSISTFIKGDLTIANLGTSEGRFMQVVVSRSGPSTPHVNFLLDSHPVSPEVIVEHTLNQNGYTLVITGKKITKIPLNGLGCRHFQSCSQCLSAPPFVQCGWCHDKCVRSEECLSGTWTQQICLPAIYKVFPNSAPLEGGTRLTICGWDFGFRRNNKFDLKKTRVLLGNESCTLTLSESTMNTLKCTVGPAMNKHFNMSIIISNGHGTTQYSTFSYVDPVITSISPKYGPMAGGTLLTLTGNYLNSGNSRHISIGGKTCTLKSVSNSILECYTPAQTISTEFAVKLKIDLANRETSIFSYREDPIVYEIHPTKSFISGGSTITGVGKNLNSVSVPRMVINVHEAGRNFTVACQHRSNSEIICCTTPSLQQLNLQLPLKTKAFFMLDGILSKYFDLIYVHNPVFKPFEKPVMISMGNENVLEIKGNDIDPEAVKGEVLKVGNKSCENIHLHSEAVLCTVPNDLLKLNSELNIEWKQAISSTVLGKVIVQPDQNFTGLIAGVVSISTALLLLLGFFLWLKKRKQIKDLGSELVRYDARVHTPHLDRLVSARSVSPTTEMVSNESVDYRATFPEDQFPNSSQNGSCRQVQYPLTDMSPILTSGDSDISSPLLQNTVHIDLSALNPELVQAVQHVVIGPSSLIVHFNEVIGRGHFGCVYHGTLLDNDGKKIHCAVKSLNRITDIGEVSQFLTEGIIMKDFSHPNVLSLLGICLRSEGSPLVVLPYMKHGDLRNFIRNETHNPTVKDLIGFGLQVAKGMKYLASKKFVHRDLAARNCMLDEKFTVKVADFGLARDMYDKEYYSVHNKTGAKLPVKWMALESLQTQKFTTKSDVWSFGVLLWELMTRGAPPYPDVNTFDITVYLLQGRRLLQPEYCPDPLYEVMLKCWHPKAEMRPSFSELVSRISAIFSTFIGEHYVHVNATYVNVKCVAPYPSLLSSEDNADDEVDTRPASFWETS

In the case of COc1ccc(C2=N[C@@H](c3ccc(Cl)cc3)[C@@H](c3ccc(Cl)cc3)N2C(=O)N2CCNC(=O)C2)c(OC(C)C)c1 [Nutlin-3a], the p53 accumulation (Caki-1 cell line [1]; [5]) is reported as “accumulated”, the “expression of p21” value (Caki-1 cell line [1]; sole treatment) is reported as “accumulated” and the “suppressive effects of cell proliferation” value [2, 6] is reported as “did not show suppressive effects of cell proliferation”. The “expression of p21” value [3, 6] was “accumulated” and the p53 accumulation [3, 5] was “accumulated”.

B1: scFv of huAbF46: scFv with structure VH-linker-VL from heavy and light chain variable regions of huAbF46 antibody (protein)
scFv: EVQLVESGGGLVQPGGSLRLSCAASGFTFTDYYMSWVRQAPGKGLEWLGFIRNKANGYTTEYSASVKGRFTISRDNSKNTLYLQMNSLRAEDTAVYYCARDNWFAYWGQGTLVTVSSGLGGLGGGGSGGGGSGGSSGVGSDIQMTQSPSSLSASVGDRVTITCKSSQSLLASGNQNNYLAWHQQKPGKAPKMLIIWASTRVSGVPSRFSGSGSGTDFTLTISSLQPEDFATYYCQQSYSAPLTFGQGTKVEIKR
For B1, the “specificity to c-Met” value (c-Met) was “exhibit specificity to c-Met”.

B2: L3-1Y: anti c-Met antibody: huAbF46-H4-A1 heavy chain variable region, human IgG2 hinge and constant region, kappa light chain (antibody)
heavy: EVQLVESGGGLVQPGGSLRLSCAASGFTFTDYYMSWVRQAPGKGLEWLGFIRNKANGYTTEYSASVKGRFTISRDNSKNTLYLQMNSLRAEDTAVYYCARDNWFAYWGQGTLVTVSSASTKGPSVFPLAPCSRSTSESTAALGCLVKDYFPEPVTVSWNSGALTSGVHTFPAVLQSSGLYSLSSVVTVPSSNFGTQTYTCNVDHKPSNTKVDKTVERKCCVECPPCPAPPVAGPSVFLFPPKPKDTLMISRTPEVTCVVVDVSHEDPEVQFNWYVDGVEVHNAKTKPREEQFNSTFRVVSVLTVVHQDWLNGKEYKCKVSNKGLPAPIEKTISKTKGQPREPQVYTLPPSREEMTKNQVSLTCLVKGFYPSDIAVEWESNGQPENNYKTTPPMLDSDGSFFLYSKLTVDKSRWQQGNVFSCSVMHEALHNHYTQKSLSLSPGK
light: DIQMTQSPSSLSASVGDRVTITCKSSQSLLASGNQNNYLAWYQQKPGKAPKMLIIWASTRVSGVPSRFSGSGSGTDFTLTISSLQPEDFATYYCQQSYSRPYTFGQGTKVEIKRTVAAPSVFIFPPSDEQLKSGTASVVCLLNNFYPREAKVQWKVDNALQSGNSQESVTEQDSKDSTYSLSSTLTLSKADYEKHKVYACEVTHQGLSSPVTKSFNRGEC
B2 was tested, and the “promoted cell proliferation as compared to the media-only control” value (Caki-1 cell line [4]) was ≥ 20% and the “suppressive effects of cell proliferation” value ([2]; sole treatment 0.1 ug/ml L3-1Y) was “about 10%”.
